Reference: ChEMBL document CHEMBL4602620, “N,O-Dialkyl deoxynojirimycin derivatives as CERT START domain ligands” (Bioorg Med Chem Lett, 2020)

Legend:
Prunus dulcis = experiment: Inhibition of almond beta-glucosidase at 0.2 mM relative to control
Aspergillus niger = experiment: Inhibition of Aspergillus niger amyloglucosidase at 0.2 mM relative to control
Saccharomyces cerevisiae = experiment: Inhibition of Saccharomyces cerevisiae alpha-glucosidase at 0.2 mM relative to control
[1] = target: T1, Ceramide transfer protein (Homo sapiens) (UniProt Q9Y5P4); experiment: Displacement of fluorescent tagged ceramide from immobilized His-tagged CERT START domain (unknown origin) assessed as reduction in residual fluorescence activity by FLINT assay relative to control; parameters: concentration or dose not given beside the values; settings: concentration not given here
T1 sequence (whole entry): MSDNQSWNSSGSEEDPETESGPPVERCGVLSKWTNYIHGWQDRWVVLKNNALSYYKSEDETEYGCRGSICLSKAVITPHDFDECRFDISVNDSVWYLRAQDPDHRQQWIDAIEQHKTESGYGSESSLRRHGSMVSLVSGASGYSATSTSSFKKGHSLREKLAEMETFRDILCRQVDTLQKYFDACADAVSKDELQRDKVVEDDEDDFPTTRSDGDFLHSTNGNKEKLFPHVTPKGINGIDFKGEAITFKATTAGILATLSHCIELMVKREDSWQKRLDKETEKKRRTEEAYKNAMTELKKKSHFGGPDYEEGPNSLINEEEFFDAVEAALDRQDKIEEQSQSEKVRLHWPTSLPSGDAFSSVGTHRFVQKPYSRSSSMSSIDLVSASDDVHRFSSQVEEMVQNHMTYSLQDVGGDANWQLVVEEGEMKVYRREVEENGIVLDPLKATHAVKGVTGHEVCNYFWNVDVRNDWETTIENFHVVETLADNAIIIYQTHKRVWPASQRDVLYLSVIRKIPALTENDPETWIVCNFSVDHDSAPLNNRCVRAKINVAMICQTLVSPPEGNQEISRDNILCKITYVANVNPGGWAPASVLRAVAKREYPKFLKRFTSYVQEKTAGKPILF

| inhibition (Prunus dulcis) [%] | inhibition (Aspergillus niger) [%] | inhibition (Saccharomyces cerevisiae) [%] | inhibition [1] [%] | SMILES |
| --- | --- | --- | --- | --- |
| 1.7 | 11 | 7.3 | 20 | CCCCCCCCCCCCO[C@H]1[C@H](O)[C@@H](O)CN(CCCCCCCCCCCC)[C@@H]1CO |
| 0.65 | 6 | 5.1 | 40 | CCCCCCCCCCCCO[C@H]1CN(CCCCCCCCCCCC)[C@H](CO)[C@@H](O)[C@@H]1O |
| 39 | 88 | 13 | 25 | CCCCCCCCCCCCN1C[C@H](O)[C@@H](O)[C@H](O)[C@H]1CO |

Further lines, the compound ahead of its results:

| SMILES | inhibition (Prunus dulcis) [%] | inhibition (Aspergillus niger) [%] | inhibition (Saccharomyces cerevisiae) [%] | inhibition [1] [%] |
| --- | --- | --- | --- | --- |
| CCCCCCCCCCCCC/C=C/[C@@H](O)[C@H](CO)NC(=O)CCCCCCCCCCCCCCC | – | – | – | 25 |
| CCCCCCCCCCCC(=O)N[C@@H](CO)C[C@H](O)c1ccccc1 | – | – | – | 25 |
| CCCCCCCCCCCCO[C@H]1CN(CCCCCCCCCCCC)C[C@@H](O)[C@@H]1O | – | – | – | 25 |
